The results in this text go back to patent US8268803B2, “5, 6-ring annulated indole derivatives and use thereof” (Merck Sharp & Dohme Corp., priority 2006, dated 2012).

Assay [1] has as its target T1, HCV NS5B polymerase (NS5BΔCT21, from HCV-Con 1 isolate, genotype 1b) (Hepatitis C virus genotype 1b, UniProt Q9WMX2).
T1 construct: A soluble C-terminal 21-amino acid truncated NS5B enzyme form; polyhistidine (C); made in house; host or cells: Escherichia coli
As to the kind of experiment: HCV NS5B Polymerase Inhibition Assay. The settings on record: incorporation of radiolabeled CTP, 22° C. for 2 hours. In kind it is biochemical. From the text: A chemically synthesized 75-mer version, designated DCoH75, whose sequence matches the 3′-end of D-RNA, and DCoH75ddC, where the 3′-terminal cytidine of DCoH75 is replaced by dideoxycytidine, were used for assaying the NS5B enzyme activity as described in Ferrari et al., 12th International Symposium on HCV and Related Viruses, P-306 (2005). The sequence of the template RNA was: 5′-UGUGCCGGUCUUUCUGAACGGGAUAUAAACCUGGCCAGCUUCAUCGAACAAGUUGCCGUGUCUAUGACAUAGAUC-3′ (SEQ ID NO: 1). A soluble C-terminal 21-amino acid truncated NS5B enzyme form (NS5BΔCT21, from HCV-Con 1 isolate, genotype 1b, Genbank accession number AJ238799) was produced and purified from Escherichia coli as C-terminal polyhistidine-tagged fusion protein as described in Ferrari et al., J. Virol. 73:1649-1654 (1999). A typical assay contained 20 mM Hepes pH 7.3, 10 mM MgCl2, 60 mM NaCl, 100 μg/ml BSA, 20 units/ml RNasin, 7.5 mM DTT, 0.1 μm ATP/GTP/UTP, 0.026 μM CTP, 0.25 mM GAU, 0.03 μM RNA template, 20 μCi/ml [^33P]-CTP, 2% DMSO, and 30 or 150 nM NS5B enzyme. Reactions were incubated at 22° C. for 2 hours, then stopped by adding 150 mM EDTA, washed in DE81 filter plate in 0.5M di-basic sodium phosphate buffer, pH 7.0, and counted using Packard TopCount after the addition of scintillation cocktail. Polynucleotide synthesis was monitored by the incorporation of radiolabeled CTP. The effect of the Compounds of Formula (I) on the polymerase activity was evaluated by adding various concentrations of a Compound of Formula (I), typically in 10 serial 2-fold dilutions, to the assay mixture. The starting concentrations ranged from 200 μM to 1 μM. An IC50 value for the inhibitor, defined as the compound concentration that provides 50% inhibition of polymerase activity, was determined by fitting the cpm data to the Hill equation Y=100/(1+10^((Log IC50−X)*HillSlope)), where X is the logarithm of compound concentration, and Y is the % inhibition. Ferrari et al., 12th International Symposium on HCV and Related Viruses, P-306 (2005) described in detail this assay procedure. It should be noted that such an assay as described is exemplary and not intended to limit the scope of the invention. The skilled practitioner can appreciate that modifications including but not limited to RNA template, primer, nucleotides, NS5B polymerase form, buffer composition, can be made to develop similar assays that yield the same result for the efficacy of the compounds and compositions described in the invention.
NS5B polymerase inhibition data for selected Compounds of Formula (I) is provided below in Table 2, wherein the compound numbers correspond to the compound numbering set forth in the above specification.

For assay [2], the system named is HCV replicon cells (replicon RNA level). The experiment in a line: Cell-Based HCV Replicon Assay. The settings on record: Hepatitis C virus, 72 h; replicon RNA level by real time PCR (Taqman), cells harvested on day 3. Here is the method: To measure cell-based anti-HCV activity of the a Compound of Formula (I), replicon cells were seeded at 5000 cells/well in 96-well collagen I-coated Nunc plates in the presence of the Compound of Formula (I). Various concentrations of a Compound of Formula (I), typically in 10 serial 2-fold dilutions, were added to the assay mixture, with the starting concentration ranging from 250 μM to 1 μM. The final concentration of DMSO was 0.5%, fetal bovine serum was 5%, in the assay media. Cells were harvested on day 3 by the addition of 1× cell lysis buffer (Ambion cat #8721). The replicon RNA level was measured using real time PCR (Taqman assay). The amplicon was located in 5B. The PCR primers were: 5B.2F, ATGGACAGGCGCCCTGA (SEQ ID NO: 2); 5B.2R, […] (SEQ ID NO: 3); the probe sequence was FAM-labeled CACGCCATGCGCTGCGG (SEQ ID NO: 4). GAPDH RNA was used as endogenous control and was amplified in the same reaction as NS5B (multiplex PCR) using primers and VIC-labeled probe recommended by the manufacturer (PE Applied Biosystem). The real-time RT-PCR reactions were run on ABI PRISM 7900HT Sequence Detection System using the following program: 48° C. for 30 min, 95° C. for 10 min, 40 cycles of 95° C. for 15 sec, 60° C. for 1 min. The ΔCT values (CT5B-CTGAPDH) were plotted against the concentration of test compound and fitted to the sigmoid dose-response model using XLfit4 (MDL). EC50 was defined as the concentration of inhibitor necessary to achieve ΔCT=1 over the projected baseline; EC90 the concentration necessary to achieve ΔCT=3.2 over the baseline. Alternatively, to quantitate the absolute amount of replicon RNA, a standard curve was established by including serially diluted T7 transcripts of replicon RNA in the Taqman assay. All Taqman reagents were from PE Applied Biosystems. Such an assay procedure was described in detail in e.g. Malcolm et al., Antimicrobial Agents and Chemotherapy 50: 1013-1020 (2006).
HCV Replicon assay data for selected Compounds of Formula (I) is provided below in Table 3, wherein the compound numbers correspond to the compound numbering set forth in the above specification. The data is designated as follows: “A” for EC50 values less than 1.0 micromolar (μM), “B” for EC50 values between 1.0 and 5.0 μM and “C” for EC50 values greater than 5.0 μM.

Consider `CS(=O)(=O)NC(=O)c1c(-c2ccc[nH]c2=O)c2cc3c(cc2n1Cc1cc(F)ccc1F)CCC3` [Compound 1], for which, in assay [1], the IC50 was less than 25 nM. Moreover, the EC50 in assay [2] is less than 1000 nM. In assay [1], `CS(=O)(=O)NC(=O)c1c(-c2ccc[nH]c2=O)c2cc3c(cc2n1Cc1ccc(OCc2ccccc2)cc1)CCC3` [Compound 8] registered an IC50 of more than 100 nM. Moreover, in assay [2], the EC50 was more than 5000 nM. In turn, `CS(=O)(=O)NC(=O)c1c(-c2ccc[nH]c2=O)c2cc3c(cc2n1Cc1cccc(OCc2ccccc2)c1)CCC3` [Compound 10] came in with an IC50 in assay [1] of more than 100 nM. `CS(=O)(=O)NC(=O)c1c(-c2ccc[nH]c2=O)c2cc3c(cc2n1Cc1ccc(O)cc1)CCC3` [Compound 2]: in assay [1], the IC50 was less than 25 nM. This compound also had a concentration for a half-maximal effect (EC50) in assay [2] of 1000 to 5000 nM. The compound `CS(=O)(=O)NC(=O)c1c(-c2ccc[nH]c2=O)c2cc3scnc3cc2n1Cc1ccnc(N)c1` [Compound 12] came in with an IC50 in assay [1] of more than 100 nM. The compound further came in with a concentration for a half-maximal effect (EC50) in assay [2] of more than 5000 nM. Compound `CS(=O)(=O)NC(=O)c1c(-c2ccc[nH]c2=O)c2cc3c(cc2n1Cc1ccccc1OCc1ccccc1)CCC3` [Compound 9] showed an IC50 in assay [1] of more than 100 nM. The same compound registered a concentration for a half-maximal effect (EC50) in assay [2] of more than 5000 nM.

As for `Nc1cc(Cn2c(C(=O)O)c(-c3ccc[nH]c3=O)c3cc4scnc4cc32)ccn1` [Compound 11], the IC50 in assay [1] was more than 100 nM. As to `O=C(O)c1c(-c2ccc[nH]c2=O)c2cc3c(cc2n1Cc1cc(F)ccc1F)CCC3` [Compound 3], the IC50 in assay [1] was less than 25 nM. For the same compound, in assay [2], the EC50 is 1000 to 5000 nM. Turning to `CS(=O)(=O)NC(=O)c1c(-c2ccc[nH]c2=O)c2cc3c(cc2n1Cc1cccc(O)c1)CCC3` [Compound 6], in assay [1], the IC50 lay within 25 to 100 nM. Further, the 50% effective concentration (EC50) in assay [2] is 1000 to 5000 nM.

Regarding `CS(=O)(=O)NC(=O)c1c(-c2ccc[nH]c2=O)c2cc3c(cc2n1Cc1ccc(F)cc1F)CCC3` [Compound 5], the 50% inhibitory concentration (IC50) in assay [1] is 25 to 100 nM. In addition, the EC50 in assay [2] lay in the range of 1000 to 5000 nM. `CS(=O)(=O)NC(=O)c1c(-c2ccc[nH]c2=O)c2cc3c(cc2n1Cc1ccccc1O)CCC3` [Compound 4] returned an IC50 in assay [1] of 25 to 100 nM. The same compound displayed an EC50 in assay [2] of 1000 to 5000 nM.

One may read the IC50 as the point on the concentration scale where inhibition reaches its midpoint. Lower therefore signals greater potency in that assay. What is called EC50 is the concentration giving half of the maximal effect. Lower therefore signals a more potent agent.
